Results published in patent publication US9895375B2, “Compositions containing riboflavin and sesamin-class compounds” (SUNTORY HOLDINGS LIMITED, priority 2006, dated 2018).

Columns and labels:
Wistar male rats = test: acetic acid writhing test; assay type: in vivo
Method: A test on analgesic action was conducted by a partly modified version of the acetic acid writhing test of Moon et. al. (Biol. Pharm. Bull. (2005)). The specific test method was as follows. […] Three days before the acetic acid writhing test, the rats were divided into three groups each consisting of 6 heads; the control group was orally administered through a tube with olive oil at a dose of 5 ml/kg whereas the remaining two groups were administered with sesamin-class compounds (sesamin/episesamin mixture; sesamin: episesamin (weight ratio)=5:5) as they were dissolved in olive oil at respective doses of 50 mg/kg and 100 mg/kg. Subsequently, administration was similarly performed two days before the test and on the day before the test, two administrations were effected, one in the morning and the other in the evening; thus, a total of four administrations were effected. On the day of testing, rats that had been fasted overnight from the previous night were orally administered with 5 ml/kg of physiological saline and one hour later, they were administered intraperitoneally with 1 ml/170 g of physiological saline containing 1% acetic acid and immediately after this administration, the number of writhing movements the animals made for 30 minutes right after the administration was counted. […]

male Balb/b mice = test: water immersion sleep deprivation test (weighted swimming time); assay type: in vivo; conditions: Example 3, FIG. 4; riboflavin 25 or 50 mg/kg (riboflavin equivalent), sesamin 50 mg/kg, p.o. once a day for 2 days of water immersion
Method: That is, by measuring the swimming time in a water-immersion sleep deprivation test. A mouse, kept in such an environment as water immersion that they are unable to have a sufficient sleep or resting position to rest physically or mentally, is forced to swim under the stress of a weight and the time it takes to have its nose submerged in the water for at least 10 seconds is measured to determine the degree of its fatigue. Since this animal model is a physical and mental fatigue model, if the administration of a test substance prolongs the swimming time, it is confirmed that the model has resistance to fatigue, as exemplified by prevention or amelioration of physical and mental fatigue and the accompanying distress such as muscular pain, an increase in physical strength that helps prolong the time to exhaustion, and maintenance of physical vigor in a fatigued state.
The effect against fatigue was evaluated by a water immersion sleep deprivation test. […]
After two days of water immersion, the mice were allowed to swim with a weight attached to each of their tails having a mass equivalent to 8% of their body weight, and the time they took to have their nose submerged in water for at least 10 seconds was measured.
The anti-fatigue action due to riboflavin and a sesamin-class compound(s) was measured as in Example 3, except that the mice were divided into six groups as shown in Table 2.

[1] = ingested in high doses; cited from earlier work
[2] = intraperitoneally, 3 to 100 mg/kg; cited from earlier work
[3] = perorally, 1 to 50 mg/kg; no further rise up to 75 mg; cited from earlier work

SMILES: Cc1cc2nc3c(=O)[nH]c(=O)nc-3n(C[C@H](O)[C@H](O)[C@H](O)COP(=O)(O)O)c2cc1C [riboflavin, riboflavin sodium phosphate]
- number of writhing movements versus control group (Olive+Saline) (Wistar male rats; Example 1, FIG. 2, vitamin B2 30 mg/kg riboflavin equivalent p.o. alone): tendency to make a smaller number of writhing movements than the control group
- suppression of number of writhing movements compared with control group (Olive+Saline) (Wistar male rats; Example 2, FIG. 3, vitamin B2 30 mg/kg riboflavin equivalent p.o., sesamin-class compounds 100 mg/kg p.o. x4 in the combination): 10.5%
- suppression of the shortening of the swimming time (anti-fatigue action) (male Balb/b mice): suppressed in the shortening of the swimming time
- migraine prophylaxis [1]: effective for migraine prophylaxis
- analgesic action against inflammatory pain [2]: showed an analgesic action against inflammatory pain in a dose-dependent fashion
- effect against pain in the nervous system [2]: ineffective
- analgesic effect in a formaldehyde test [3]: peaked at 25 mg
